# Data published in article PMC6615598, “Novel antibiotics effective against gram-positive and -negative multi-resistant bacteria with limited resistance” (PLoS Biology, 2019).
# Read-outs that look alike come from different tables or passages of the source. Starred links: 1 amine or outer side, 2 acyl side, 3 side chain; linkers in the order of their positions; H or OH if unused. Non-standard residues stand in square brackets, D forms with d. Residues, ends and D or L forms follow the SMILES beside them. azaβ3(1Nal) = O=C(CN(Cc1cccc2ccccc12)N[*:1])[*:2]
# Columns and labels:
# MRSA [1] = assay: In vivo resistance: kidney extracts plated on plates containing 1- to 8-fold peptide MIC (severe sepsis); format: cell-based, S. aureus; details: kidneys at day 7 after repeated treatments, plates with drug at 2-fold MIC
# Procedure: For 15 d in MHB, MICs were determined daily for each pseudopeptide and their antibiotic controls. This was done using cells from the well in which the compound concentration was one-half of the MIC (1/2MIC). For each compound, the 1/2MIC well from the previous day’s MIC assay plate was re-suspended and the bacteria grown to a density of about 10^8 cells ml−1. The suspension was diluted in MHB or CAMHB (10^6 cells/ml) and then used to determine the MIC of the same compound determined by micro broth dilution. All MIC measurements were performed in duplicate. Aliquots of the 5 × 10^4 cell/ml dilutions for each 1/2MIC well were periodically plated on MHB and incubated at 35°C for 18 h to verify cell density by colony counts and for visual inspection of colony phenotypes. To control compound stability, peptide solution MICs were determined during and at the end of the 15 d and were compared to cells unexposed to antibiotics. In vivo resistance was also assessed in treated mice (1.5 mg.kg^−1) for 4 d (sepsis) or 6 d (skin abscesses). […] For severe sepsis and subcutaneous abscesses, in vivo resistance was determined by plating aliquots of crude kidney extracts or abscesses on plates containing 1-, 2-, 4-, or 8-fold the peptide MICs 7 or 3 d post infections, respectively.
# [2] = set-up: species or system mice; details: mouse, in vivo, iv
# Procedure: Control embryos were injected with 1 nl of water. […] Each animal was checked for mortality twice per day. […] RBCs were washed until the supernatant was clear. […] RBCs in PBS were a negative control without hemolysis.
# Supplementary file pbio.3000337.s011.docx: S5 Table Mice toxicity assays. Clinical signs observed on Day 1 after IV administration of each of the peptide and pseudopeptides in sets of 3 mice. Not observed symptoms are marked with a dash. (DOCX) Click here for additional data file.
# MRSA [3] = assay: Severe sepsis mouse model, survival; format: in vivo; details: mice, approximately 2 × 10^9 CFUs MRSA IV; 4 IV doses of 0.5 mg.kg^−1 at 2, 24, 48, 72 h
# From the text: Tolerance and toxicity studies were done on male Swiss mice (CD-1 Crl: CD-1 [ICR] IGS; Charles River). These were 7 to 10 weeks old and weighed an average of 37.2 g. All experimental protocols were approved by the Adaptive Therapeutics Animal Care and Use Committee (APAFiS #4508-2016031l15541258 v2). For the sepsis model, we used female Swiss mice (Janvier Labs), 6 to 8 weeks old and weighing approximately 30 g. Experiments were monitored in the ARCHE-BIOSIT animal lab in Rennes, in biological duplicate. We used Groups of 5 mice for the mild and the severe sepsis models with MRSA. Mice were IV inoculated with 150 μl of MRSA suspensions in 0.9% NaCl containing approximately 5 × 10^8 CFUs for the “mild” sepsis and approximately 2 × 10^9 CFUs for the “severe” sepsis, respectively. […] Mice survival was monitored for 4 d (“severe” sepsis) or 14 d (“mild” sepsis), and the statistical significance of difference(s) between the groups was evaluated using the Wilcoxon test. P < 0.05 was considered significant. Two weeks (“mild” sepsis) or 4 d (“severe” sepsis) after inoculation, mice were euthanized with CO2.
compound,measurement,setting,value
CC(C)[C@@H]1NC(=O)[C@H](CCCNC(=N)N)NC(=O)[C@H](CCCNC(=N)N)NC(=O)CN(Cc2cccc3ccccc23)NC(=O)[C@H](Cc2ccccc2)NC(=O)CN(Cc2cccc3ccccc23)NC(=O)[C@H](CCCCN)NC1=O [Pep19] (cyclo([azaβ3(1Nal)]F[azaβ3(1Nal)]RRVK)),Clones with increased resistance from kidneys,MRSA [1],no clones with increased resistances were detected
same,"Abdominal breathing, mice with sign",[2],-
same,"Half-closed eyes, mice with sign",[2],-
same,"Hindlimbs widespread, mice with sign",[2],1
same,"Piloerection, mice with sign",[2],3
same,"Abdominal breathing, mice with sign",[2]; 2 mg/kg,-
same,"Decreased grasping reflex, mice with sign",[2]; 2 mg/kg,-
same,"Dyspnea, mice with sign",[2]; 2 mg/kg,-
same,"Half-closed eyes, mice with sign",[2]; 2 mg/kg,-
same,"Hunched posture, mice with sign",[2]; 2 mg/kg,1
same,"Hypoactivity, mice with sign",[2]; 2 mg/kg,1
same,"Hypotonia, mice with sign",[2]; 2 mg/kg,-
same,"Piloerection, mice with sign",[2]; 2 mg/kg,3
same,"Red-colored ears, mice with sign",[2]; 2 mg/kg,-
same,"Red-colored eyes, mice with sign",[2]; 2 mg/kg,-
same,"Staggering gait, mice with sign",[2]; 2 mg/kg,1
same,"Sudden startle, mice with sign",[2]; 2 mg/kg,-
same,"Decreased grasping reflex, mice with sign",[2]; […],-
same,"Half-closed eyes, mice with sign",[2]; […],-
same,"Hypotonia, mice with sign",[2]; […],-
same,"Piloerection, mice with sign",[2]; […],3
same,"Red-colored ears, mice with sign",[2]; […],-
same,"Red-colored eyes, mice with sign",[2]; […],-
same,Survival in severe sepsis,MRSA [3],protected the infected animals
